Experimental findings from patent publication US8871753B2, “Macrocyclic compounds and their use as kinase inhibitors” (Incyte Corporation, priority 2008, dated 2014) are described below.

For assay [1], the target named is T1, human JAK2 (a.a. 828-1132) (Homo sapiens, UniProt O60674).
T1 construct: JAK2 (a.a. 828-1132); His tag (N); made in house; host or cells: insect cells (baculovirus)
Briefly: In vitro JAK kinase assay (HTRF, phosphorylation of a biotinylated peptide), JAK2. Conditions: Table D1. Format: biochemical. Here is the method: (§1) The catalytic activity of JAK1, JAK2 or JAK3 was assayed by measuring the phosphorylation of a biotinylated peptide. The phosphorylated peptide was detected by homogenous time resolved fluorescence (HTRF). […] The ATP concentration in the reactions was 90 μM for JAK1, 30 μM for JAK2 and 3 μM for JAK3. Reactions were carried out at room temperature for 1 hr and then stopped with 20 μL 45 mM EDTA, 300 nM SA-APC, 6 nM Eu-Py20 in assay buffer (Perkin Elmer, Boston, Mass.). Binding to the Europium labeled antibody took place for 40 minutes and HTRF signal was measured on a Fusion plate reader (Perkin Elmer, Boston, Mass.).
(§2) The catalytic activity of JAK1, JAK2 or JAK3 was assayed by measuring the phosphorylation of a biotinylated peptide. The phosphorylated peptide was detected by homogenous time resolved fluorescence (HTRF). […] Reactions were carried out at room temperature for 1 hr and then stopped with 20 μL 45 mM EDTA, 300 nM SA-APC, 6 nM Eu-Py20 in assay buffer (Perkin Elmer, Boston, Mass.). Binding to the Europium labeled antibody took place for 40 minutes and HTRF signal was measured on a Fusion plate reader (Perkin Elmer, Boston, Mass.).
(Time-resolved FRET reads energy transfer from a long-lived donor to a nearby acceptor.)

Assay [2] concerns the target T2, human JAK1 (a.a. 837-1142) (Homo sapiens, UniProt P23458).
T2 construct: human JAK1 (a.a. 837-1142); His tag (N); made in house; host or cells: insect cells (baculovirus)
Briefly: In vitro JAK kinase assay (HTRF, phosphorylation of a biotinylated peptide), JAK1. The format is biochemical. As to conditions: Table D1; read-out: JAK1 IC50. Here is the method: as §1, §2

T2 sequence (P23458 849-1154): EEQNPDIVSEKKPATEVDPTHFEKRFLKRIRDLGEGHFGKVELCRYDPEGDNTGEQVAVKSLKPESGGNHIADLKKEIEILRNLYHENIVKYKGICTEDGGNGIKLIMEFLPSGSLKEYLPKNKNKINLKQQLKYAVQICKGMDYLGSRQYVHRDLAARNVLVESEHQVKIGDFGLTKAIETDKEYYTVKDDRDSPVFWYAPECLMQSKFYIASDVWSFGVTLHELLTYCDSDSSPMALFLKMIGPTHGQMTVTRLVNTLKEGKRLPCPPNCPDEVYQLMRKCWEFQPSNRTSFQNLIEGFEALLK
T1 sequence (O60674 828-1132): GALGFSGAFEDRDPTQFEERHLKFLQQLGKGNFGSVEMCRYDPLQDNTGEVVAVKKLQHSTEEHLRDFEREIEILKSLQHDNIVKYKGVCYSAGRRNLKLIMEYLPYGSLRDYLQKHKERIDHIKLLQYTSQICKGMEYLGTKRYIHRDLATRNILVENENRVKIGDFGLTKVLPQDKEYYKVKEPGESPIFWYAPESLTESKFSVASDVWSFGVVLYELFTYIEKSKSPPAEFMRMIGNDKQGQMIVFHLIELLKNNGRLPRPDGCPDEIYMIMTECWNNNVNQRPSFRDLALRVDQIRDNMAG

Usually IC50 stands for the point on the concentration scale where inhibition reaches its midpoint. `O=C(C[C@H]1CCN(C(=O)c2ccno2)C1)Nc1ccc2cc1CCc1cncc(c1)Nc1ncc(Cl)c(n1)N2` [Example D105, N-[6-Chloro-2,4,8,18,22-pentaazatetracyclo[14.3.1.1(3,7).1(9,13)]docosa-1(20),3(22),4,6,9(21),10,12,16,18-nonaen-12-yl]-2-[(3R)-1-(isoxazol-5-ylcarbonyl)pyrrolidin-3-yl]acetamide bis(trifluoroacetate)]: the half-inhibitory concentration (IC50) in assay [1] worked out at 216 nM; in assay [2], 25 nM.
For the molecule `Cn1ccc(C(=O)N2CC[C@H](CC(=O)Nc3ccc4cc3CCc3cncc(c3)Nc3ncc(Cl)c(n3)N4)C2)n1` [Example D106, N-[6-Chloro-2,4,8,18,22-pentaazatetracyclo[14.3.1.1(3,7).1(9,13)]docosa-1(20),3(22),4,6,9(21),10,12,16,18-nonaen-12-yl]-2-{(3R)-1-[(1-methyl-1H-pyrazol-3-yl)carbonyl]pyrrolidin-3-yl}acetamide bis(trifluoroacetate)], the IC50 in assay [1] came out at 256 nM; in assay [2], 32 nM.
The matching figures for `Cn1cc(C(=O)N2CC[C@H](CC(=O)Nc3ccc4cc3CCc3cncc(c3)Nc3ncc(Cl)c(n3)N4)C2)cn1` [Example D107, N-[6-Chloro-2,4,8,18,22-pentaazatetracyclo[14.3.1.1(3,7).1(9,13)]docosa-1(20),3(22),4,6,9(21),10,12,16,18-nonaen-12-yl]-2-{(3R)-1-[(1-methyl-1H-pyrazol-4-yl)carbonyl]pyrrolidin-3-yl}acetamide bis(trifluoroacetate)]: 185 nM and 25 nM.
Consider `Cc1oncc1C(=O)N1CC[C@H](CC(=O)Nc2ccc3cc2CCc2cncc(c2)Nc2ncc(Cl)c(n2)N3)C1` [Example D108, N-[6-Chloro-2,4,8,18,22-pentaazatetracyclo[14.3.1.1(3,7).1(9,13)]docosa-1(20),3(22),4,6,9(21),10,12,16,18-nonaen-12-yl]-2-{(3R)-1-[(5-methylisoxazol-4-yl)carbonyl]pyrrolidin-3-yl}acetamide bis(trifluoroacetate)], for which the figures for the IC50 in assay [1] and in assay [2] were 246 nM and 62 nM, respectively.
The matching figures for `Cc1cc(C(=O)N2CC[C@H](CC(=O)Nc3ccc4cc3CCc3cncc(c3)Nc3ncc(Cl)c(n3)N4)C2)no1` [Example D109, N-[6-Chloro-2,4,8,18,22-pentaazatetracyclo[14.3.1.1(3,7).1(9,13)]docosa-1(20),3(22),4,6,9(21),10,12,16,18-nonaen-12-yl]-2-{(3R)-1-[(5-methylisoxazol-3-yl)carbonyl]pyrrolidin-3-yl}acetamide bis(trifluoroacetate)]: 189 nM and 16 nM.
The corresponding values for `O=C(C[C@H]1CCN(C(=O)c2nccs2)C1)Nc1ccc2cc1CCc1cncc(c1)Nc1ncc(Cl)c(n1)N2` [Example D110, N-[6-Chloro-2,4,8,18,22-pentaazatetracyclo[14.3.1.1(3,7).1(9,13)]docosa-1(20),3(22),4,6,9(21),10,12,16,18-nonaen-12-yl]-2-[(3R)-1-(1,3-thiazol-2-ylcarbonyl)pyrrolidin-3-yl]acetamide bis(trifluoroacetate)] are 222 nM and 22 nM.
As to `Cn1cncc1C(=O)N1CC[C@H](CC(=O)Nc2ccc3cc2CCc2cncc(c2)Nc2ncc(Cl)c(n2)N3)C1` [Example D111, N-[6-Chloro-2,4,8,18,22-pentaazatetracyclo[14.3.1.1(3,7).1(9,13)]docosa-1(20),3(22),4,6,9(21),10,12,16,18-nonaen-12-yl]-2-{(3R)-1-[(1-methyl-1H-imidazol-5-yl)carbonyl]pyrrolidin-3-yl}acetamide tris(trifluoroacetate)], the IC50 in assay [1] is 689 nM; in assay [2], 61 nM.
The corresponding values for `CS(=O)(=O)N1CC[C@H](CC(=O)Nc2ccc3cc2CCc2cncc(c2)Nc2ncc(Cl)c(n2)N3)C1` [Example D112, N-[6-Chloro-2,4,8,18,22-pentaazatetracyclo[14.3.1.1(3,7).1(9,13)]docosa-1(20),3(22),4,6,9(21),10,12,16,18-nonaen-12-yl]-2-[(3R)-1-(methylsulfonyl)pyrrolidin-3-yl]acetamide bis(trifluoroacetate)] are 142 nM and 9.9 nM.
Consider `O=C(C[C@@H]1CCN(C(=O)Nc2ccccc2)C1)Nc1ccc2cc1CCc1cncc(c1)Nc1ncc(Cl)c(n1)N2` [Example D113, (3S)-3-(2-{[6-Chloro-2,4,8,18,22-pentaazatetracyclo[14.3.1.1(3,7).1(9,13)]docosa-1(20),3(22),4,6,9(21),10,12,16,18-nonaen-12-yl]amino}-2-oxoethyl)-N-phenylpyrrolidine-1-carboxamide bis(trifluoroacetate)], for which the figures for the IC50 in assay [1] and in assay [2] were 161 nM and 11 nM, respectively.
The matching figures for `N#Cc1ccc(NC(=O)N2CC[C@@H](CC(=O)Nc3ccc4cc3CCc3cncc(c3)Nc3ncc(Cl)c(n3)N4)C2)cc1` [Example D114, (3S)-3-(2-{[6-Chloro-2,4,8,18,22-pentaazatetracyclo[14.3.1.1(3,7).1(9,13)]docosa-1(20),3(22),4,6,9(21),10,12,16,18-nonaen-12-yl]amino}-2-oxoethyl)-N-(4-cyanophenyl)pyrrolidine-1-carboxamide bis(trifluoroacetate)]: 83 nM and 9 nM.
Consider `N#Cc1cccc(NC(=O)N2CC[C@@H](CC(=O)Nc3ccc4cc3CCc3cncc(c3)Nc3ncc(Cl)c(n3)N4)C2)c1` [Example D115, (3S)-3-(2-{[6-Chloro-2,4,8,18,22-pentaazatetracyclo[14.3.1.1(3,7).1(9,13)]docosa-1(20),3(22),4,6,9(21),10,12,16,18-nonaen-12-yl]amino}-2-oxoethyl)-N-(3-cyanophenyl)pyrrolidine-1-carboxamide bis(trifluoroacetate)], for which the IC50 in assay [1] worked out at 163 nM; in assay [2], 19 nM.
The matching figures for `N#Cc1ccccc1NC(=O)N1CC[C@@H](CC(=O)Nc2ccc3cc2CCc2cncc(c2)Nc2ncc(Cl)c(n2)N3)C1` [Example D116, (3S)-3-(2-{[6-Chloro-2,4,8,18,22-pentaazatetracyclo[14.3.1.1(3,7).1(9,13)]docosa-1(20),3(22),4,6,9(21),10,12,16,18-nonaen-12-yl]amino}-2-oxoethyl)-N-(2-cyanophenyl)pyrrolidine-1-carboxamide bis(trifluoroacetate)]: 577 nM and 23 nM.
With `O=C(C[C@@H]1CCN(C(=O)Nc2cccnc2)C1)Nc1ccc2cc1CCc1cncc(c1)Nc1ncc(Cl)c(n1)N2` [Example D117, (3S)-3-(2-{[6-Chloro-2,4,8,18,22-pentaazatetracyclo[14.3.1.1(3,7).1(9,13)]docosa-1(20),3(22),4,6,9(21),10,12,16,18-nonaen-12-yl]amino}-2-oxoethyl)-N-pyridin-3-ylpyrrolidine-1-carboxamide tris(trifluoroacetate)], the IC50 in assay [1] worked out at 392 nM; in assay [2] it was 39 nM.
The corresponding values for `O=C(C[C@@H]1CCN(C(=O)Nc2ccc(F)cc2)C1)Nc1ccc2cc1CCc1cncc(c1)Nc1ncc(Cl)c(n1)N2` [Example D118, (3S)-3-(2-{[6-Chloro-2,4,8,18,22-pentaazatetracyclo[14.3.1.1(3,7).1(9,13)]docosa-1(20),3(22),4,6,9(21),10,12,16,18-nonaen-12-yl]amino}-2-oxoethyl)-N-(4-fluorophenyl)pyrrolidine-1-carboxamide bis(trifluoroacetate)] are 236 nM and 12 nM.
As to `O=C(C[C@@H]1CCN(C(=O)Nc2cccc(F)c2)C1)Nc1ccc2cc1CCc1cncc(c1)Nc1ncc(Cl)c(n1)N2` [Example D119, (3S)-3-(2-{[6-Chloro-2,4,8,18,22-pentaazatetracyclo[14.3.1.1(3,7).1(9,13)]docosa-1(20),3(22),4,6,9(21),10,12,16,18-nonaen-12-yl]amino}-2-oxoethyl)-N-(3-fluorophenyl)pyrrolidine-1-carboxamide bis(trifluoroacetate)], the results for the half-inhibitory concentration (IC50) in assay [1] and in assay [2] were 198 nM and 10 nM, respectively.
For the molecule `O=C(C[C@@H]1CCN(C(=O)c2ccno2)C1)Nc1ccc2cc1CCc1cncc(c1)Nc1ncc(Cl)c(n1)N2` [Example D120, N-[6-Chloro-2,4,8,18,22-pentaazatetracyclo[14.3.1.1(3,7).1(9,13)]docosa-1(20),3(22),4,6,9(21),10,12,16,18-nonaen-12-yl]-2-[(3S)-1-(isoxazol-5-ylcarbonyl)pyrrolidin-3-yl]acetamide bis(trifluoroacetate)], the results for the IC50 in assay [1] and in assay [2] were 397 nM and 20 nM, respectively.
Regarding `Cn1ccc(C(=O)N2CC[C@@H](CC(=O)Nc3ccc4cc3CCc3cncc(c3)Nc3ncc(Cl)c(n3)N4)C2)n1` [Example D121, N-[6-Chloro-2,4,8,18,22-pentaazatetracyclo[14.3.1.1(3,7).1(9,13)]docosa-1(20),3(22),4,6,9(21),10,12,16,18-nonaen-12-yl]-2-{(3S)-1-[(1-methyl-1H-pyrazol-3-yl)carbonyl]pyrrolidin-3-yl}acetamide bis(trifluoroacetate)], the IC50 is 550 nM in assay [1] and 75 nM in assay [2].
